Paper PMC12813973, “Consequences of Peptide Macrocyclization Revealed by Virus-Inspired β‑Hairpin Mimetics” (ACS Chemical Biology, 2025)
Like-named read-outs stand apart in the source and are kept apart here.

Molecular target: T1, STAT1 (Homo sapiens, UniProt P42224)
T1 construct: full-length STAT1 (Uniprot #P42224-1) was expressed in E. coli; His tag (pEXP-NHis vector) (N); made in house; host or cells: E. coli T7 Express
T1 sequence (P42224 1-750): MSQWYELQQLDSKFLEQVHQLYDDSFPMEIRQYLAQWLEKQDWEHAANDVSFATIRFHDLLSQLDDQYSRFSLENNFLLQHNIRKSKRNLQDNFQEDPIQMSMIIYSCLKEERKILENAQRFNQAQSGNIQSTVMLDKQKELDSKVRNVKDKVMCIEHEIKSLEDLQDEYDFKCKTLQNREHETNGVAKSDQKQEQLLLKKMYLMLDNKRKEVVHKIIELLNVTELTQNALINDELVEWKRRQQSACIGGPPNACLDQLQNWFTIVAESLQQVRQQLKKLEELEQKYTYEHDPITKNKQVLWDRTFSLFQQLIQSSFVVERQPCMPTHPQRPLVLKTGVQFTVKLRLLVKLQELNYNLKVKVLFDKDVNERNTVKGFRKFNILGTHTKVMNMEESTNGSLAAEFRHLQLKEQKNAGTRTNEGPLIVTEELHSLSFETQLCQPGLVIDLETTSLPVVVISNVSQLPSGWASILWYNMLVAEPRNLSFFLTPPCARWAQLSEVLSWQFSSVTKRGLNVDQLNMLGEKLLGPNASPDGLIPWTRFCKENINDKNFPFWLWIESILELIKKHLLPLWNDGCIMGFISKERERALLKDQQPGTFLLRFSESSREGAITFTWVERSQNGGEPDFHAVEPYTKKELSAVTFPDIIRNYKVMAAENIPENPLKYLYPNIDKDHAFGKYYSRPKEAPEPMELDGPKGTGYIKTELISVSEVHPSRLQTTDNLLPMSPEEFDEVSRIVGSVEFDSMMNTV
Test: Isothermal titration calorimetry (ITC) of peptide binding to STAT1
Description: To determine affinities and thermodynamic profiles of binding, we performed isothermal titration calorimetry (ITC) experiments for peptides 1, 2, 3, 4, 7, and 8 (Figures A,B and S1,S2, Table S1). […] The experiments were repeated in two different buffer systems, TBST (50 mM Tris pH 8.0, 300 mM NaCl, 0.01% Tween-20) and PBST ([…], 150 mM NaCl, 0.01% Tween-20), to account for possible buffer protonation enthalpy artifacts. […]
Isothermal titration calorimetry (ITC)
ITC experiments were performed using a PEAQ ITC instrument (Malvern Panalytical) in either TBST (50 mM Tris pH 8.0, 300 mM NaCl, 0.5 mM TCEP, 0.01% Tween -20) or PBST (10 mM sodium phosphate pH 7.4, 150 mM NaCl, 0.01% Tween -20) as reaction buffers. STAT1 protein was buffer -exchanged into reaction buffer supplemented with 2% DMSO on a NAP -5 deslating column (Cytiv a #17085301) and its concentration was adjusted to 10 or 20 μM.
Peptides were diluted in reaction buffer from DMSO stocks to a matching 2% DMSO concentration. Peptide concentrations were adjusted to approximately 100-200 μM. ITC experiments were performed with STAT1 in the cell and peptides in the syringe at 25°C, with 750 RPM stirring, DP = 4 μcal/sec. 18 injections of 2 μl were performed over a 50 min titration.
Thermogram integra tion and isotherm fitting were performed using the PEAQ ITC analysis software (Malvern Panalytical ). Isotherms were fitted using a 1:1 binding model. Due to challenges in determining peptide concentrations with high accuracy , protein concentrations and stoichiometry (N=1.0) were kept constant during isotherm fitting, whereas peptide concentrations were allowed to vary. Fixing a single reactant concentration during fitting is acceptable given the sufficiently high C -values and isotherm curvature observed in the […]
Offset subtraction was implemented to remove injection heats.

[1] = PBST, replicate 1 (first listed run, Table S1)
[2] = PBST, replicate 2 (second listed run, Table S1)
[3] = PBST, replicate 3 (third listed run, Table S1)
[4] = TBST, replicate 1 (first listed run, Table S1)
[5] = TBST, replicate 2 (second listed run, Table S1)
[6] = TBST, replicate 3 (third listed run, Table S1)

Compound: CC[C@H](C)[C@H](NC(=O)[C@H](Cc1ccccc1)NC(=O)[C@@H](NC(=O)[C@H](CO)NC(=O)[C@H](Cc1c[nH]c2ccccc12)NC(=O)[C@H](CCSC)NC(C)=O)C(C)C)C(=O)N[C@@H](Cc1c[nH]cn1)C(=O)NCC(=O)N[C@@H](Cc1c[nH]cn1)C(=O)N[C@@H](CC(=O)O)C(=O)NCC(=O)N[C@@H](CO)C(=O)N[C@@H](CC(N)=O)C(=O)N[C@@H](CCCCN)C(=O)NCC(=O)N[C@@H](CO)C(=O)N[C@@H](CCCCN)C(=O)N[C@H](C(=O)N[C@@H](Cc1ccc(O)cc1)C(=O)N[C@H](C(N)=O)[C@@H](C)O)[C@@H](C)O [Peptide 1]
- Kd (PBST pH 7.4 (NaPi, 150 mM NaCl, 0.01% Tween-20), average of 2–3 technical replicates, read-out: KD (ITC, summary Fig 2B)): 253 nM
- -T∆S [1]: 13.8 kcal/mol
- ∆G [1]: -9.00 kcal/mol
- ∆H [1]: -22.8 kcal/mol
- -T∆S [2]: 12.7 kcal/mol
- ∆G [2]: -9.17 kcal/mol
- ∆H [2]: -21.8 kcal/mol
- -T∆S [3]: 13.7 kcal/mol
- ∆G [3]: -8.87 kcal/mol
- ∆H [3]: -22.6 kcal/mol
- Kd (TBST (50 mM Tris pH 8.0, 300 mM NaCl, 0.01% Tween-20), 25°C, 1:1 model, average of three technical replicates ± SD (text and Fig 2A), SD, read-out: KD (ITC)): 533 ± 20 nM
- -TΔS (ITC) (TBST, mean ± SD, SD): 10.10 ± 1.48 kcal/mol
- ΔH (ITC) (TBST, mean ± SD, SD): -18.56 ± 1.55 kcal/mol
- -T∆S [4]: 9.86 kcal/mol
- ∆G [4]: -8.54 kcal/mol
- ∆H [4]: -18.1 kcal/mol
- -T∆S [5]: 8.75 kcal/mol
- ∆G [5]: -8.58 kcal/mol
- ∆H [5]: -17.3 kcal/mol
- -T∆S [6]: 11.7 kcal/mol
- ∆G [6]: -8.55 kcal/mol
- ∆H [6]: -20.3 kcal/mol
